DBAASP
≈ marks a conversion by molar mass, not a printed value. Where “and” joins values, the source holds several entries; their conditions need not be identical. Equal values may be shown once.

Experiments:
Experiment in all cases: ≥ marks a high value that may be exact or a test limit, other limits are often not marked, values filed in µg/mL are converted to µM
[1] = system: Bacillus subtilis ATCC 6633
[2] = system: Escherichia coli ATCC 25922
[3] = system: Klebsiella pneumoniae ATCC 10031
[4] = system: Micrococcus luteus ATCC 10240
[5] = system: Pseudomonas aeruginosa ATCC 27853
[6] = system: Salmonella enterica subsp. enterica serovar Typhimurium ATCC 14028
[7] = system: Shigella dysenteriae ATCC 9752
[8] = system: Staphylococcus aureus ATCC 6538P
[9] = system: Staphylococcus epidermidis ATCC 12228
[10] = system: Candida albicans IOC 4558
Candida albicans MDM8 = system: Candida albicans MDM8
[11] = system: Candida glabrata IOC 4565
Candida krusei IOC 4559 = system: Candida krusei IOC 4559
[12] = system: Candida parapsilosis IOC 4564
[13] = system: Candida tropicalis IOC 4560
[14] = system: Trichosporon sp. IOC 4569
[15] = system: Escherichia coli HP101BA 7601c
[16] = system: Klebsiella pneumoniae PTCC 1388
[17] = system: Salmonella typhimurium PTCC 1428
[18] = system: Staphylococcus aureus PTCC 1431
[19] = system: Streptococcus agalactiae PTCC 1365
[20] = system: Streptococcus dysgalactiae PTCC 1074
[21] = system: Acinetobacter baumannii CICC 22934
Acinetobacter baumannii = system: Acinetobacter baumannii
Bacillus cereus AS1.126 = system: Bacillus cereus AS1.126
Bacillus cereus = system: Bacillus cereus
[22] = system: Enterobacter cloacae CGMCC 1.58
Enterobacter cloacae = system: Enterobacter cloacae
[23] = system: Enterococcus faecalis CGMCC 1.595
[24] = system: Enterococcus faecium CGMCC 1.2334
Enterococcus faecium = system: Enterococcus faecium
Escherichia coli AS1.349 = system: Escherichia coli AS1.349
[25] = system: Escherichia coli ATCC 11775
Escherichia coli = system: Escherichia coli
[26] = system: Klebsiella aerogenes CGMCC 1.876
Klebsiella aerogenes = system: Klebsiella aerogenes
[27] = system: Klebsiella pneumoniae subsp. pneumoniae CGMCC 1.176
Klebsiella pneumoniae = system: Klebsiella pneumoniae
[28] = system: Lactococcus lactis AS1.1690
Lactococcus lactis = system: Lactococcus lactis
[29] = system: Proteus mirabilis CICC 22931
[30] = system: Pseudomonas aeruginosa CGMCC 1.860
Pseudomonas aeruginosa = system: Pseudomonas aeruginosa
Pseudomonas fluorescens = system: Pseudomonas fluorescens
[31] = system: Staphylococcus aureus AS1.72
[32] = system: Staphylococcus aureus ATCC 12600
Staphylococcus aureus = system: Staphylococcus aureus
[33] = system: Staphylococcus epidermidis CICC 23664
[34] = system: Staphylococcus epidermidis
Bacillus subtilis = system: Bacillus subtilis
Proteus vulgaris = system: Proteus vulgaris
Salmonella typhimurium = system: Salmonella typhimurium
Streptococcus pyogenes = system: Streptococcus pyogenes
Bacillus subtilis 168 = system: Bacillus subtilis 168
[35] = system: Candida albicans F7-39/IDE99
Escherichia coli B = system: Escherichia coli B
[36] = system: Micrococcus luteus CCM 144

**Q.** For `CC(C)C[C@H](NC(=O)[C@H](CCCCN)NC(=O)[C@H](CC(C)C)NC(=O)[C@H](CC(C)C)NC(=O)[C@H](Cc1c[nH]c2ccccc12)NC(=O)[C@H](CCCCN)NC(=O)[C@H](CC(C)C)NC(=O)[C@H](CC(C)C)NC(=O)[C@@H](N)CCCCN)C(N)=O` [KLLKWLLKL], which MIC [1] is on record?
**A.** Its MIC is 10.8 µM (≈ 12.5 µg/mL).

**Q.** What about the MIC [2] of the same compound?
**A.** Its MIC is 10.8 µM (≈ 12.5 µg/mL).

**Q.** What about the MIC [3] of the same compound?
**A.** Its MIC is 5.46 µM (≈ 6.29 µg/mL).

**Q.** What about the MIC [4] of the same compound?
**A.** The MIC was 21.7 µM (≈ 25 µg/mL).

**Q.** And the MIC [5]?
**A.** Its MIC is 43.3 µM (≈ 50 µg/mL).

**Q.** What about the MIC [6] of the same compound?
**A.** Its MIC is 21.7 µM (≈ 25 µg/mL).

**Q.** What about the MIC [7] of the same compound?
**A.** The MIC was 10.8 µM (≈ 12.5 µg/mL).

**Q.** What about the MIC [8] of the same compound?
**A.** Its MIC is 2.69 µM (≈ 3.1 µg/mL).

**Q.** And the MIC [9]?
**A.** Its MIC is 10.8 µM (≈ 12.5 µg/mL).

**Q.** What does the source list for `CC[C@H](C)[C@H](N)C(=O)N[C@H](C(=O)N[C@H](C(=O)N[C@@H](CCC(N)=O)C(=O)N[C@@H](Cc1ccc(O)cc1)C(=O)N[C@@H](CCC(=O)O)C(=O)NCC(=O)N[C@@H](Cc1cnc[nH]1)C(=O)N[C@@H](CCCCN)C(=O)N[C@@H](Cc1cnc[nH]1)C(=O)O)[C@@H](C)CC)[C@@H](C)CC` [IIIQYEGHKH]?
**A.** MIC [10]: 16.5 µM (≈ 20.4 µg/mL); MIC (Candida albicans MDM8): ≥ 33.5 µM; MIC [11]: 16.5 µM (≈ 20.4 µg/mL); MIC (Candida krusei IOC 4559): ≥ 33.5 µM; MIC [12]: ≥ 33.5 µM; MIC [13]: 16.5 µM (≈ 20.4 µg/mL); MIC [14]: 2.1 µM (≈ 2.6 µg/mL)

**Q.** With `CC(C)C[C@H](NC(=O)[C@@H](NC(=O)CNC(=O)[C@H](C)NC(=O)[C@H](CC(C)C)NC(=O)[C@@H](NC(=O)[C@@H]1CCCN1C(=O)[C@H](CC(C)C)NC(=O)[C@@H](N)Cc1ccccc1)C(C)C)C(C)C)C(=O)N[C@@H](CO)C(=O)N[C@@H](CCCN=C(N)N)C(=O)N[C@@H](C)C(N)=O` [FLPVLAGVLSRA] as the compound, how does the MIC [15] read?
**A.** The MIC was 27.8 µM (≈ 34.5 µg/mL).

**Q.** And the MIC [16]?
**A.** The MIC was 28.2 µM (≈ 35.1 µg/mL).

**Q.** And the MIC [17]?
**A.** The MIC was 25.6 µM (≈ 31.8 µg/mL).

**Q.** What about the MIC [18] of the same compound?
**A.** The MIC was at least 33.9 µM.

**Q.** What about the MIC [19] of the same compound?
**A.** Its MIC is 24.5 µM (≈ 30.5 µg/mL).

**Q.** What about the MIC [20] of the same compound?
**A.** Its MIC is 17.5 µM (≈ 21.8 µg/mL).

**Q.** Which MIC [21] does the source give for `CC(C)C[C@H](NC(=O)CNC(=O)[C@H](Cc1ccccc1)NC(=O)[C@H](CCCN=C(N)N)NC(=O)[C@H](CCCN=C(N)N)NC(=O)CNC(=O)[C@H](Cc1cnc[nH]1)NC(=O)[C@H](CCCN=C(N)N)NC(=O)CNC(=O)[C@@H](NC(=O)[C@H](C)NC(=O)[C@@H](N)CO)C(C)C)C(=O)N[C@@H](CCCN=C(N)N)C(=O)N[C@@H](CCCCN)C(=O)N[C@@H](Cc1cnc[nH]1)C(=O)N[C@@H](CCCN=C(N)N)C(=O)N[C@@H](CCCCN)C(=O)N[C@@H](Cc1cnc[nH]1)C(=O)O` [SAVGRHGRRFGLRKHRKH] here?
**A.** The MIC was at least 100 µM.

**Q.** What about the MIC (Acinetobacter baumannii) of the same compound?
**A.** The MIC was at least 50 µM.

**Q.** What about the MIC (Bacillus cereus AS1.126) of the same compound?
**A.** The MIC was 11.6 µM (≈ 25 µg/mL).

**Q.** What about the MIC (Bacillus cereus) of the same compound?
**A.** The MIC was 11.6 µM (≈ 25 µg/mL).

**Q.** What about the MIC [22] of the same compound?
**A.** The MIC was at least 500 µM.

**Q.** What about the MIC (Enterobacter cloacae) of the same compound?
**A.** Its MIC is at least 50 µM.

**Q.** What about the MIC [23] of the same compound?
**A.** Its MIC is at least 33.3 µM.

**Q.** What about the MIC [24] of the same compound?
**A.** Its MIC is at least 42.4 µM.

**Q.** What about the MIC (Enterococcus faecium) of the same compound?
**A.** Its MIC is at least 50 µM.

**Q.** And the MIC (Escherichia coli AS1.349)?
**A.** The MIC was at least 500 µM.

**Q.** What about the MIC [25] of the same compound?
**A.** Its MIC is 3 µM (≈ 6.47 µg/mL).

**Q.** What about the MIC (Escherichia coli) of the same compound?
**A.** Its MIC is > 100 µM and 50 µM.

**Q.** And the MIC [26]?
**A.** Its MIC is at least 500 µM.

**Q.** And the MIC (Klebsiella aerogenes)?
**A.** Its MIC is at least 50 µM.

**Q.** What about the MIC [27] of the same compound?
**A.** The MIC was at least 500 µM.

**Q.** And the MIC (Klebsiella pneumoniae)?
**A.** The MIC was over 50 µM.

**Q.** And the MIC [28]?
**A.** The MIC was 15.6 µM (≈ 33.6 µg/mL).

**Q.** What about the MIC (Lactococcus lactis) of the same compound?
**A.** Its MIC is 11.6 µM (≈ 25 µg/mL).

**Q.** And the MIC [29]?
**A.** The MIC was at least 100 µM.

**Q.** And the MIC [30]?
**A.** The MIC was at least 380 µM.

**Q.** And the MIC (Pseudomonas aeruginosa)?
**A.** Its MIC is over 50 µM.

**Q.** What about the MIC (Pseudomonas fluorescens) of the same compound?
**A.** The MIC was at least 50 µM.

**Q.** What about the MIC [31] of the same compound?
**A.** Its MIC is at least 58 µM.

**Q.** What about the MIC [32] of the same compound?
**A.** Its MIC is 6 µM (≈ 12.9 µg/mL).

**Q.** What about the MIC (Staphylococcus aureus) of the same compound?
**A.** Its MIC is 58 µM and 50 µM.

**Q.** And the MIC [33]?
**A.** Its MIC is 7.2 µM (≈ 15.5 µg/mL).

**Q.** And the MIC [34]?
**A.** Its MIC is at least 50 µM.

**Q.** How did the MIC (Bacillus subtilis) turn out when `CC(C)C[C@H](NC(=O)[C@H](CCCN=C(N)N)NC(=O)[C@@H]1CCCN1C(=O)[C@H](Cc1cnc[nH]1)NC(=O)[C@@H]1CCCN1C(=O)[C@@H]1CCCN1C(=O)[C@H](CCCN=C(N)N)NC(=O)[C@@H]1CCCN1C(=O)[C@@H](N)CCC(N)=O)C(=O)O` [QPRPPHPRL] was run?
**A.** Its MIC is at least 64 µM.

**Q.** And the MIC (Escherichia coli)?
**A.** Its MIC is 64 µM (≈ 70.2 µg/mL).

**Q.** And the MIC (Proteus vulgaris)?
**A.** The MIC was at least 64 µM.

**Q.** And the MIC (Pseudomonas aeruginosa)?
**A.** Its MIC is 64 µM (≈ 70.2 µg/mL).

**Q.** What about the MIC (Salmonella typhimurium) of the same compound?
**A.** Its MIC is at least 32 µM.

**Q.** What about the MIC [34] of the same compound?
**A.** The MIC was at least 64 µM.

**Q.** What about the MIC (Streptococcus pyogenes) of the same compound?
**A.** The MIC was at least 64 µM.

**Q.** For `CC[C@H](C)[C@@H]1NC(=O)[C@H](CCCCN)NC(=O)[C@H](CCCCN)NC(=O)[C@@H]2CSSC[C@H](NC(=O)[C@H](C)NC(=O)[C@H](C(C)C)NC(=O)[C@@H](NC(=O)[C@@H](NC(=O)[C@@H](NC(=O)[C@H](CCCCN)NC(=O)[C@H](CCCCN)NC(=O)[C@@H](NC(=O)[C@H](CC(=O)O)NC(=O)[C@@H](N)CC(C)C)C(C)C)[C@@H](C)CC)[C@@H](C)CC)CSSC[C@@H](C(=O)N3CCC[C@H]3C(=O)N[C@@H](CCCCN)C(=O)O)NC1=O)C(=O)N[C@@H](CCCCN)C(=O)N[C@@H]([C@@H](C)CC)C(=O)N[C@@H](CCCCN)C(=O)N1CCC[C@H]1C(=O)N[C@@H](CC(N)=O)C(=O)N1CCC[C@H]1C(=O)N[C@@H](C)C(=O)N2` [LDVKKIICVACKIKPNPACKKICPK], which MIC (Bacillus subtilis 168) is on record?
**A.** Its MIC is 3.3 µM (≈ 9.08 µg/mL).

**Q.** And the MIC [35]?
**A.** Its MIC is 24.2 µM (≈ 66.6 µg/mL).

**Q.** And the MIC (Escherichia coli B)?
**A.** Its MIC is at least 63.3 µM.

**Q.** And the MIC [36]?
**A.** Its MIC is 1.6 µM (≈ 4.4 µg/mL).

**Q.** And the MIC (Pseudomonas aeruginosa)?
**A.** The MIC was over 100 µM.

**Q.** What about the MIC (Staphylococcus aureus) of the same compound?
**A.** Its MIC is over 100 µM.
